Measurements from ChEMBL document CHEMBL3046635, “Synthesis and Herbicidal Activity of New Pyrazole-4-carboxamide Derivatives” (J Pestic Sci, 2004).
The source made the active and inactive calls.

Tests used:
[1] = system: Schoenoplectiella juncoides; test: Pre-emergence herbicidal activity against Schoenoplectiella juncoides assessed as bleaching of stem/leaf parts; format: functional, organism-based
Eleocharis acicularis [2] = test: Post-emergence herbicidal activity against Eleocharis acicularis assessed as bleaching of stem/leaf parts; format: functional, organism-based; note: test concentration or dose not given here
Rotala indica [3] = test: Pre-emergence herbicidal activity against Rotala indica assessed as bleaching of stem/leaf parts; format: functional, organism-based
Elatine triandra [4] = test: Pre-emergence herbicidal activity against Elatine triandra at 2000 g a.i/ha measured after 14 days; format: functional, organism-based
Echinochloa oryzicola [5] = test: Pre-emergence herbicidal activity against Echinochloa oryzicola assessed as bleaching of stem/leaf parts; format: functional, organism-based
Pontederia vaginalis [6] = test: Post-emergence herbicidal activity against Monochoria vaginalis assessed as bleaching of stem/leaf parts; format: functional, organism-based; note: test concentration or dose not given here
Cyperus difformis [7] = test: Pre-emergence herbicidal activity against Cyperus difformis at 2000 g a.i/ha measured after 14 days; format: functional, organism-based
Eleocharis acicularis [8] = test: Pre-emergence herbicidal activity against Eleocharis acicularis assessed as bleaching of stem/leaf parts; format: functional, organism-based
Ammannia multiflora [9] = test: Pre-emergence herbicidal activity against Ammannia multiflora at 2000 g a.i/ha measured after 14 days; format: functional, organism-based
Elatine triandra [10] = test: Post-emergence herbicidal activity against Elatine triandra assessed as bleaching of stem/leaf parts; format: functional, organism-based; note: test concentration or dose not given here
Rotala indica [11] = test: Pre-emergence herbicidal activity against Rotala indica at 2000 g a.i/ha measured after 14 days; format: functional, organism-based
Pontederia vaginalis [12] = test: Pre-emergence herbicidal activity against Monochoria vaginalis at 2000 g a.i/ha measured after 14 days; format: functional, organism-based
Echinochloa oryzicola [13] = test: Pre-emergence herbicidal activity against Echinochloa oryzicola at 2000 g a.i/ha measured after 14 days; format: functional, organism-based
Oryza sativa = test: Phytotoxicity against Oryza sativa cv. Koshihikari (rice) at 2000 g a.i/ha measured after 14 days; format: organism-based; settings: in vivo, 336 h
[14] = system: Schoenoplectiella juncoides; test: Pre-emergence herbicidal activity against Schoenoplectiella juncoides at 2000 g a.i/ha measured after 14 days; format: functional, organism-based
[15] = system: Schoenoplectiella juncoides; test: Post-emergence herbicidal activity against Schoenoplectiella juncoides assessed as bleaching of stem/leaf parts; format: functional, organism-based; note: test concentration or dose not given here
Ammannia multiflora [16] = test: Post-emergence herbicidal activity against Ammannia multiflora assessed as bleaching of stem/leaf parts; format: functional, organism-based; note: test concentration or dose not given here
Lindernia procumbens [17] = test: Post-emergence herbicidal activity against Lindernia procumbens assessed as bleaching of stem/leaf parts; format: functional, organism-based; note: test concentration or dose not given here
Cyperus difformis [18] = test: Post-emergence herbicidal activity against Cyperus difformis assessed as bleaching of stem/leaf parts; format: functional, organism-based; note: test concentration or dose not given here
Echinochloa oryzicola [19] = test: Post-emergence herbicidal activity against Echinochloa oryzicola assessed as bleaching of stem/leaf parts; format: functional, organism-based; note: test concentration or dose not given here
Lindernia procumbens [20] = test: Pre-emergence herbicidal activity against Lindernia procumbens assessed as bleaching of stem/leaf parts; format: functional, organism-based
Elatine triandra [21] = test: Pre-emergence herbicidal activity against Elatine triandra assessed as bleaching of stem/leaf parts; format: functional, organism-based
Lindernia procumbens [22] = test: Pre-emergence herbicidal activity against Lindernia procumbens at 2000 g a.i/ha measured after 14 days; format: functional, organism-based
Cyperus difformis [23] = test: Pre-emergence herbicidal activity against Cyperus difformis assessed as bleaching of stem/leaf parts; format: functional, organism-based
Ammannia multiflora [24] = test: Pre-emergence herbicidal activity against Ammannia multiflora assessed as bleaching of stem/leaf parts; format: functional, organism-based
Pontederia vaginalis [25] = test: Pre-emergence herbicidal activity against Monochoria vaginalis assessed as bleaching of stem/leaf parts; format: functional, organism-based
Eleocharis acicularis [26] = test: Pre-emergence herbicidal activity against Eleocharis acicularis at 2000 g a.i/ha measured after 14 days; format: functional, organism-based
Rotala indica [27] = test: Post-emergence herbicidal activity against Rotala indica assessed as bleaching of stem/leaf parts; format: functional, organism-based; note: test concentration or dose not given here

Row | Structure (SMILES) | Activity [1] | Activity (Eleocharis acicularis [2]) | Activity (Rotala indica [3]) | Activity (Elatine triandra [4]) | Activity (Echinochloa oryzicola [5]) | Activity (Pontederia vaginalis [6]) | Activity (Cyperus difformis [7]) | Activity (Eleocharis acicularis [8]) | Activity (Ammannia multiflora [9]) | Activity (Elatine triandra [10]) | Activity (Rotala indica [11]) | Activity (Pontederia vaginalis [12]) | Activity (Echinochloa oryzicola [13]) | Activity (Oryza sativa) | Activity [14] | Activity [15] | Activity (Ammannia multiflora [16]) | Activity (Lindernia procumbens [17]) | Activity (Cyperus difformis [18]) | Activity (Echinochloa oryzicola [19]) | other results
1 | CCCN(CC)C(=O)c1cn(C)nc1OCc1ccccc1C(F)(F)F | Active | Active | Active | inactive | Active | Active | inactive | Active | inactive | Active | inactive | inactive | inactive | Non-toxic | inactive | Active | Active | Active | Active | Active | Activity (Lindernia procumbens [20]): Active; Activity (Elatine triandra [21]): Active; Activity (Lindernia procumbens [22]): inactive; Activity (Cyperus difformis [23]): Active; Activity (Ammannia multiflora [24]): Active; Activity (Pontederia vaginalis [25]): Active; Activity (Eleocharis acicularis [26]): inactive; Activity (Rotala indica [27]): Active
2 | CCCN(CC)C(=O)c1cn(C)nc1OC | Active | Active | Active | inactive | Active | Active | inactive | Active | inactive | Active | inactive | inactive | inactive | Non-toxic | inactive | Active | Active | Active | Active | Active | Activity (Lindernia procumbens [20]): Active; Activity (Elatine triandra [21]): Active; Activity (Lindernia procumbens [22]): inactive; Activity (Cyperus difformis [23]): Active; Activity (Ammannia multiflora [24]): Active; Activity (Pontederia vaginalis [25]): Active; Activity (Eleocharis acicularis [26]): inactive; Activity (Rotala indica [27]): Active
3 | CCCN(CC)C(=O)c1cn(C)nc1OCc1cccc(Br)c1 | Active | Active | Active | inactive | Active | Active | inactive | Active | inactive | Active | inactive | Active | Active | Non-toxic | Active | Active | Active | Active | Active | Active | Activity (Lindernia procumbens [20]): Active; Activity (Elatine triandra [21]): Active; Activity (Lindernia procumbens [22]): inactive; Activity (Cyperus difformis [23]): Active; Activity (Ammannia multiflora [24]): Active; Activity (Pontederia vaginalis [25]): Active; Activity (Eleocharis acicularis [26]): Active; Activity (Rotala indica [27]): Active
4 | CCCN(CC)C(=O)c1cn(C)nc1OCc1cc(C(F)(F)F)cc(C(F)(F)F)c1 | Active | Active | Active | inactive | Active | Active | inactive | Active | inactive | Active | inactive | inactive | inactive | Non-toxic | inactive | Active | Active | Active | Active | Active | Activity (Lindernia procumbens [20]): Active; Activity (Elatine triandra [21]): Active; Activity (Lindernia procumbens [22]): inactive; Activity (Cyperus difformis [23]): Active; Activity (Ammannia multiflora [24]): Active; Activity (Pontederia vaginalis [25]): Active; Activity (Eleocharis acicularis [26]): inactive; Activity (Rotala indica [27]): Active
